In paper PMC8279415, “Targeting Acute Myelogenous Leukemia Using Potent Human Dihydroorotate Dehydrogenase Inhibitors Based on the 2-Hydroxypyrazolo[1,5-a]pyridine Scaffold: SAR of the Biphenyl Moiety” (Journal of Medicinal Chemistry, 2021):
≈ marks a conversion by molar mass, not a printed value. Like-named read-outs stand apart in the source and are kept apart here.

Columns and labels:
[1] = LogD7.4, shake-flask n-octanol/PBS; conditions: for LogD^7.4 ± SD: n-octanol/PBS pH 7.4, shake-flask; for Log D7.4 ± SD (supplement CSV): supplementary CSV; for logD: n-octanol/PBS; for logD / logD at 20 min: pH 7.4
Description: The partition coefficients between n-octanol and PBS at pH 7.4 (LogD^7.4) were obtained using the shake-flask technique at room temperature. In the shake-flask experiments, 50 mM phosphate buffered saline, pH 7.4, was used as the aqueous phase. The organic (n-octanol) and aqueous phases were mutually saturated by shaking for 4 h. The compounds were solubilized in the buffered aqueous phase at the highest concentration compatible with solubility, and appropriate amounts of n-octanol were added. The two phases were shaken for about 20 min, by which time the partitioning equilibrium of solutes had been reached, and then centrifuged (10 000 rpm, 10 min). The concentration of the solutes was measured in the aqueous phase using a UV spectrophotometer (Varian Cary 50BIO); absorbance values (recorded for each compound at the wavelength of maximum absorption) were interpolated in calibration curves obtained using standard solutions of the compounds (r^2 > 0.99). Each log D value is an average of at least six measurements.

[2] = Solubility assay at pH 7.4 in PBS; format: physicochemical; conditions: for solubility in PBS / solubility at 24 h: pH 7.4, 25 °C, 24 h, LOD 6 μM; for solubility at 24 h: phosphate buffered saline
Description: These suspensions were filtered through a PTFE 0.45 μm filter (VWR), and the solutions were chromatographically analyzed using a PerkinElmer ultrahigh performance liquid chromatography (UHPLC) instrument, equipped with a reverse-phase (RP) C18 Phenomenex column (2.1 mm × 100 mm, 1.7 μm particle size). […] The flow rate was 0.5 mL/min. Standard injection volumes were either 2 or 4 μL for poorly soluble compounds. The detection system was a PerkinElmer diode array detector. The wavelengths that were monitored for each compound were defined according to the compound’s own absorption spectrum. Solubility, expressed as μM concentration of the saturated solution, was calculated via interpolation with external calibration curves that were obtained with solutions of each compound in acetonitrile.

recombinant hDHODH = biological target: T1, recombinant hDHODH (Homo sapiens, UniProt Q02127); test: hDHODH inhibition assay (DCIP reduction); format: biochemical
T1 construct: made in house; host or cells: E. coli BL21DE3 PyrD
T1 sequence (Q02127 whole entry): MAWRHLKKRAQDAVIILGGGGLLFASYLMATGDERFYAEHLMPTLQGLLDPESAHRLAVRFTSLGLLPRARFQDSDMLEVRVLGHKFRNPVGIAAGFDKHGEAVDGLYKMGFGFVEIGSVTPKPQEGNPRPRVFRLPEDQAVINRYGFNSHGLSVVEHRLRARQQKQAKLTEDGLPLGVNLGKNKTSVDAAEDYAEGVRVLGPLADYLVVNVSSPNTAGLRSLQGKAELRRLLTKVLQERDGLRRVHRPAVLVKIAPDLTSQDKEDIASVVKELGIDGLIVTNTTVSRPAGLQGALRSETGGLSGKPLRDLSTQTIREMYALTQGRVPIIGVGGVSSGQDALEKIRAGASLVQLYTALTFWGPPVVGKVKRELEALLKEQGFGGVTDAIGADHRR
Description: BL21DE3 PyrD E. coli cells were transformed using the plasmid construct pFN2A–hDHODH (kindly given by Department of Drug Science and Technology, University of Turin, Turin, Italy). The vector produces hDHODH as an N-terminal GST-fusion protein. Cells were grown at 37 °C in LB medium supplemented with 0.1 mM flavin mononucleotide (Cayman Chemical). […] Triton X-100 was added to the lysate, to a final concentration of 1%, before centrifugation at 14 000g for 40 min at 4 °C. The clarified supernatant was incubated with DNase I for 30 min at room temperature, supplemented with 2 mM dithiothreitol (DTT), and filtered through a 0.45 μm syringe filter as previously described by Sainas et al.[18] The GST-fused enzyme was purified from the bacterial lysate using affinity chromatography on immobilized glutathione-Sepharose columns (GE- […]). The GST tag was not cleaved for further analysis. All the reagents used in the protein expression and purification were supplied by Merck/Sigma-Aldrich if not otherwise specified.
The enzymatic inhibition assay was optimized for being performed on a 96-well plate and to achieve higher throughput. For each well of the plate a total volume of 200 μL was used: 5 μL of purified GST-hDHODH; 60 μL of 2,6-dichloroindophenol (DCIP) 50 μM; 20 μL of coenzyme Q10 enzyme 100 μM; 20 μL of dihydroorotate (DHO) 500 μM; Tris-HCl, pH 8, up to a final volume of 200 μL. Inhibitory activity was assessed by monitoring the reduction of DCIP, which is associated with the oxidation of dihydroorotate as catalyzed by the DHODH enzyme. The enzyme was preincubated for 5 min at 37 °C in Tris-HCl, pH 8, with coenzyme Q10, with DCIP (50 μM), and with the compounds to be tested used at different concentrations (final DMSO concentration 0.1% v/v). The reaction was initiated by the addition of DHO (500 μM), and the absorbance kinetic reduction was monitored at λ = 650 nm using a multiplate reader (Tecan, M1000Pro). In order to assess the minimum and maximum absorbance values of the enzymatic reaction, a Min control value was obtained by measuring the absorbance without DHO. Similarly, a Max value was obtained by measuring the absorbance with DHO but no inhibitor. A blank reduction calculation was also performed by measuring the absorbance values using 180 μL of Tris-HCl and 20 μL of coenzyme Q10. The instrument was set to read the absorbance values every 10 s for a total read time of 10 min at 37 °C. […] Values are the mean ± SE of three independent experiments.

THP1 cells = test: Fixed-concentration screening of differentiation (CD14) and apoptosis (annexin V) in THP1, with or without uridine; format: cell-based, human; conditions: THP1, 1 μM
Description: DMSO (dimethyl sulfoxide) acts as the negative control group as it was used to solubilize hDHODH inhibitors. ∗, ∗∗, ∗∗∗ represent the statistical significance for apoptosis (respectively p < 0.05, < 0.01, and <0.001). #, ##, and ### represent the statistical significance for differentiation (respectively p < 0.05, <0.01, and <0.001). The statistical significance is calculated by comparing the compounds to DMSO.
The statistical significance is calculated by comparing the compounds to DMSO.

[3] = mean ± SE of three independent experiments, read-out: hDHODH, IC50 ± SE
[4] = supplementary CSV, values differ from Table 2, read-out: hDHODH IC50 ± SE (supplement CSV)

SMILES | LogD^7.4 ± SD [1] | Log D7.4 ± SD (supplement CSV) [1] | solubility in PBS [2] | solubility at 24 h [2] [µM] | IC50 (recombinant hDHODH; [3]) [nM] | IC50 (recombinant hDHODH; [4]) [nM] | logD [1] | activity in cells (differentiation and apoptosis) (THP1 cells) | solubility in PBS relative to 1 [2] | logD at 20 min [1]
O=C(Nc1c(F)c(F)c(-c2ccc(F)cc2)c(F)c1F)c1c(O)nn2ccccc12 [Compound 10, 2-Hydroxy-N-(2,3,4′,5,6-pentafluoro-[1,1′-biphenyl]-4-yl)pyrazolo[1,5-a]pyridine-3-carboxamide] | insoluble | Insoluble | <LOD | < 6 | 17.7 ± 3.3 | 8.32 ± 1.36 |  |  |  | 
O=C(Nc1c(F)c(F)c(-c2ccc(C(F)(F)F)cc2)c(F)c1F)c1c(O)nn2ccccc12 [Compound 12, 2-Hydroxy-N-(2,3,5,6-tetrafluoro-4′-(trifluoromethyl)-[1,1′-biphenyl]-4-yl)pyrazolo[1,5-a]pyridine-3-carboxamide] | insoluble | Insoluble | <LOD | < 6 | 71.8 ± 9.42 | 29.6 ± 3.2 |  |  |  | 
O=C(Nc1c(F)c(F)c(-c2cccs2)c(F)c1F)c1c(O)nn2ccccc12 [Compound 7, 2-Hydroxy-N-(2,3,5,6-tetrafluoro-4-(thiophen-2-yl)phenyl)pyrazolo[1,5-a]pyridine-3-carboxamide] |  |  |  |  | 1.35 ± 0.45 | 1.37 ± 0.1 |  |  |  | 
O=C(Nc1c(F)c(F)c(-c2cccc(O)c2)c(F)c1F)c1c(O)nn2ccccc12 [Compound 14, 2-Hydroxy-N-(2,3,5,6-tetrafluoro-3′-hydroxy-[1,1′-biphenyl]-4-yl)pyrazolo[1,5-a]pyridine-3-carboxamide] |  |  |  | 55.3 (≈ 23.1 µg/mL) | 2.78 ± 0.32 | 2 ± 0.67 | 1.82 ± 0.09 | basically inactive | around 5 times | 
O=C(Nc1c(F)c(F)c(-c2ccnc(C(F)(F)F)c2)c(F)c1F)c1c(O)nn2ccccc12 [Compound 9, 2-Hydroxy-N-(2,3,5,6-tetrafluoro-4-(2-(trifluoromethyl)pyridin-4-yl)phenyl)pyrazolo[1,5-a]pyridine-3-carboxamide] |  |  |  | 20.2 (≈ 9.5 µg/mL) | 150 ± 15 |  | 1.84 ± 0.06 | basically inactive | 1.5 times | 
O=C(Nc1c(F)c(F)c(-c2ccccc2)c(F)c1F)c1c(O)nn2c(Cl)cccc12 [Compound 4, 7-Chloro-2-hydroxy-N-(2,3,5,6-tetrafluoro-[1,1′-biphenyl]-4-yl)pyrazolo[1,5-a]pyridine-3-carboxamide] |  |  | <LOD |  | 3.4 ± 0.5 |  |  |  |  | 2.81 ± 0.13
Cc1cccc2c(C(=O)Nc3c(F)c(F)c(-c4ccccc4)c(F)c3F)c(O)nn12 [Compound 2] |  |  |  |  | 4.3 ± 0.5 |  |  |  |  | 
O=C(Nc1c(F)c(F)c(N2CCOCC2)c(F)c1F)c1c(O)nn2ccccc12 [Compound 6, 2-Hydroxy-N-(2,3,5,6-tetrafluoro-4-morpholinophenyl)pyrazolo[1,5-a]pyridine-3-carboxamide] |  |  |  | 438 (≈ 180 µg/mL) | 90.9 ± 13.1 |  | 0.66 ± 0.08 | basically inactive |  | 
O=C(Nc1c(F)c(F)c(-c2ccccc2)c(F)c1F)c1c(O)nn2c1CCCC2 [Compound 5, 2-Hydroxy-N-(2,3,5,6-tetrafluoro-[1,1′-biphenyl]-4-yl)-4,5,6,7-tetrahydropyrazolo[1,5-a]pyridine-3-carboxamide] |  |  | <LOD |  | 5.8 ± 0.4 |  |  |  |  | 2.36 ± 0.02
